Among the data in patent US20230310629A1, “BISPECIFIC ANTIBODY-DRUG CONJUGATES TARGETING EGFR AND MUC1 AND USES THEREOF” (Merck Patent GmbH, priority 2020, published 2023) are IC50 and Emax values, retold here.

Molecules are shown by their SMILES. pIC50: −log10 of the molar value.

For one assay, the system named is NCI-H292 cells. In words: cells. The class given is cell-based. Conditions: Homo sapiens. The protocol:
(§1) NSCLC cells NCI-H292 (EGFR wild type (wt)), HCC827 (EGFR del E746-A750), and NCI-H1975 (EGFR L858R/T790M) were all purchased from ATCC. NCI-H292 and NCI-H1975 were cultured in RPMI1640 media with stable L-glutamine (Millipore® Sigma), 10% FBS (Millipore® Sigma) and 1 mM sodium pyruvate (Gibco®, Thermo Fisher Scientific®, or Millipore® Sigma). HCC827 cells were cultured in RPMI1640 media with stable 2 mM L-glutamine, 2.5 g/L D-(+)-glucose solution (Millipore® Sigma), 10 mM HEPES (Millipore® Sigma), 10% FBS, and 1 mM sodium pyruvate (Gibco®, Thermo Fisher Scientific®, or Millipore® Sigma).
(§2) For cytotoxicity testing, cell monolayers were washed once with Gibco® D-PBS (Thermo Fisher Scientific®) and detached from the cell culture flask using Accutase® (Millipore® Sigma). Viable cells were counted with the automated cell counter LUNA-FL™ (Logos Biosystems) using 0.4% Gibco® trypan blue solution (Thermo Fisher Scientific®). A total of 625 cells (NCI-H292), 1250 cells (NCI-H1975) or 3000 cells (HCC827) were plated in 90 μl cell culture medium per well of a 96-well black/clear flat bottom TC-treated imaging microplate (Corning®) and cultured overnight. A ten-fold starting concentration of ADCs or compounds and a respective serial dilution (1:4) were prepared in cell culture medium briefly before use. Wells were supplied with 10 μl ADC or compound solution. Treatment was performed in technical triplicates. […] Untreated control cells for ADCs or EGFR tyrosine kinase inhibitors (TKIs) received a corresponding amount of dilution media or dimethylsulfoxide (DMSO; Millipore Sigma), respectively. For subsequent cell viability measurement, 100 μl Cell Titer-Glo® reagent (Promega™ Corp, Madison, WI, USA) was pipetted in each well, and plates were further processed according the manufacturer's instructions.

The subject of another assay is NCI-H1975 cells. In words: cells. Conditions: Homo sapiens. In kind it is cell-based. On the procedure:
as §1, §2

As for `C=CC(=O)Nc1cc(Nc2nccc(-c3cn(C)c4ccccc34)n2)c(OC)cc1N(C)CCN(C)C` [Molecule 15, osimertinib], the pIC50 is 6.24 in the assay with NCI-H292 cells (NCI-H292, […], read-out: Geomean IC50) and […] with NCI-H1975 cells (NCI-H1975, […], read-out: Geomean IC50). For the same molecule, the Emax in the assay with NCI-H292 cells (NCI-H292, read-out: geomean span (% efficacy)) came out at […]; with NCI-H1975 cells (NCI-H1975, read-out: geomean span (% efficacy)), […].

The pIC50 is the negative decadic logarithm of the IC50, by convention in mol/L.
